Results published in ChEMBL document CHEMBL5291721, “A preclinical secondary pharmacology resource illuminates target-adverse drug reaction associations of marketed drugs” (Nat Commun, 2023).

What was measured:
[1] = molecular target: cGMP-inhibited 3',5'-cyclic phosphodiesterase 3A (Homo sapiens, UniProt Q14432); type: functional
[2] = molecular target: T1, Prostaglandin G/H synthase 1 (Homo sapiens, UniProt P23219); type: functional
D(1A) dopamine receptor = D(1A) dopamine receptor (Homo sapiens, UniProt P21728)
Acetylcholinesterase = Acetylcholinesterase (Homo sapiens, UniProt P22303); type: functional
Thromboxane A2 receptor = molecular target: T2, Thromboxane A2 receptor (Homo sapiens, UniProt P21731); type: functional, cell-based
T2 sequence (P21731 whole entry): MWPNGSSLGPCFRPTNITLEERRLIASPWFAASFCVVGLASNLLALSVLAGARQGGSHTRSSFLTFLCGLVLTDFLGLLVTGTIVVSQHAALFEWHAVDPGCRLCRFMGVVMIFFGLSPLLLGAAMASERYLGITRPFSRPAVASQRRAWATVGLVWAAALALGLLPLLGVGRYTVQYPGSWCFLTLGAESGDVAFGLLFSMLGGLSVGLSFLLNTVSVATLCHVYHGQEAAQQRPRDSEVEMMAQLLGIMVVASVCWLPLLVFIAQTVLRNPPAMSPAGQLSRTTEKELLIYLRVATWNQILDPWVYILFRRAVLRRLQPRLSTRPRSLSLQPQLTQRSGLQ

[3] = molecular target: 3',5'-cyclic-AMP phosphodiesterase 4A (Homo sapiens, UniProt P27815); type: functional
[4] = molecular target: T3, Alpha-1A adrenergic receptor (Homo sapiens, UniProt P35348); type: functional, cell-based
T3 sequence (P35348 whole entry): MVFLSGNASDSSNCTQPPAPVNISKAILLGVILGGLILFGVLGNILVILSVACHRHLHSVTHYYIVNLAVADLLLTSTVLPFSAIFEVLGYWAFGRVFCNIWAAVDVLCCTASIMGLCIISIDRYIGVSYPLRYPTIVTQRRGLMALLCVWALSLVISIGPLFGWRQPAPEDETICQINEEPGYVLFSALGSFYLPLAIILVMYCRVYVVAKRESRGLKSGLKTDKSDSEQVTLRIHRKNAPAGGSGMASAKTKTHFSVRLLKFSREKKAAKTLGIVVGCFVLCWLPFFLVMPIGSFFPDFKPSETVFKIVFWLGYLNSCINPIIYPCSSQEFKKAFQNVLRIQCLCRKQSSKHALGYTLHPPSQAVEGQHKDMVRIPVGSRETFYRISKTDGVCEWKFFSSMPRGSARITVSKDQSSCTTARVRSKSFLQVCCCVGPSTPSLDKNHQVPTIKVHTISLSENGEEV

[5] = molecular target: Voltage-gated inwardly rectifying potassium channel KCNH2 (Homo sapiens, UniProt Q12809); type: functional
Mu-type opioid receptor = Mu-type opioid receptor (Homo sapiens, UniProt P35372)
Progesterone receptor = molecular target: T4, Progesterone receptor (Homo sapiens, UniProt P06401)
T4 sequence (P06401 whole entry): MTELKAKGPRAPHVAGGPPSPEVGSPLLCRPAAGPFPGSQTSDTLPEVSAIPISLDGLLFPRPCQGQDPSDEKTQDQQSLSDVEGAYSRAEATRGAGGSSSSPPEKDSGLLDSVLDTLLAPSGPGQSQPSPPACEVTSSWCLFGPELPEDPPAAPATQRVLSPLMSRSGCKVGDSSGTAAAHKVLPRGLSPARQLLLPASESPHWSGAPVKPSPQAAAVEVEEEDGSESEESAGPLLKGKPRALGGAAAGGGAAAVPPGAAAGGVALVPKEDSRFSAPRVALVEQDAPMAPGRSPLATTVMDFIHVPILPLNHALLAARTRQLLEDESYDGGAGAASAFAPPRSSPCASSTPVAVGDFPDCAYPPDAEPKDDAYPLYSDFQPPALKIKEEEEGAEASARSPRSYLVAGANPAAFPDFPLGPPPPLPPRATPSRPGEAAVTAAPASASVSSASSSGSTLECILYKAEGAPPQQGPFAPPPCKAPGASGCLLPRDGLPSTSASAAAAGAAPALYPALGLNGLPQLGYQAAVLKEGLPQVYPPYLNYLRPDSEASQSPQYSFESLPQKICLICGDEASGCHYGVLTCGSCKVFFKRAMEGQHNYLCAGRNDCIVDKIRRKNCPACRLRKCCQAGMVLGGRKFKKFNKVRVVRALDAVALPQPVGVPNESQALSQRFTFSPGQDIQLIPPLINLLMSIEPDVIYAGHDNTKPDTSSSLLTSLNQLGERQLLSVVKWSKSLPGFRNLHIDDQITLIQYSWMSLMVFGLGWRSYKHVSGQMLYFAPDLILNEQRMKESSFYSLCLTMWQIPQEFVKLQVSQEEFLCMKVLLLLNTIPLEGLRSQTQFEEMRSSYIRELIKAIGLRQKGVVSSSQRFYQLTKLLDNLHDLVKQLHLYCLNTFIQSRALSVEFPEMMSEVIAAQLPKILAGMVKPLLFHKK

Prothrombin = Prothrombin (Homo sapiens, UniProt P00734); type: functional
[6] = molecular target: T5, Amine oxidase [flavin-containing] A (Homo sapiens, UniProt P21397); type: functional
T5 sequence (P21397 whole entry): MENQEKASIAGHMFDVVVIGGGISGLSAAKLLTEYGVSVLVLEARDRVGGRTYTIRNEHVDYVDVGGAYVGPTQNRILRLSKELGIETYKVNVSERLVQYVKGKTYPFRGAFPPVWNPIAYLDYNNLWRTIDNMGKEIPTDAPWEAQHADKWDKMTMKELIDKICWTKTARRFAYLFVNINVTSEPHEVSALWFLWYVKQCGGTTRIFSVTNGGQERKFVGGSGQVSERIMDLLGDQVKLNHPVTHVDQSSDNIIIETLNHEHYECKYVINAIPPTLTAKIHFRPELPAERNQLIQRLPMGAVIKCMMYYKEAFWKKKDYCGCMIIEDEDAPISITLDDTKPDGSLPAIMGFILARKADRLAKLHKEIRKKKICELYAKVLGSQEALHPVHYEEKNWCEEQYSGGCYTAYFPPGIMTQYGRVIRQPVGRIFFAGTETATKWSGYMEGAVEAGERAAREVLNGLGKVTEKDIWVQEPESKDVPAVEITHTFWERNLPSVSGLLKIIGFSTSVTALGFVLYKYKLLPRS

D(3) dopamine receptor = D(3) dopamine receptor (Homo sapiens, UniProt P35462)
[7] = molecular target: T1, Prostaglandin G/H synthase 1; type: functional; remark: listed apart in the source
[8] = molecular target: Sodium-dependent dopamine transporter (Homo sapiens, UniProt Q01959)
Further: assay procedure not described here.

Mu-type opioid receptor, sequence (P35372 whole entry): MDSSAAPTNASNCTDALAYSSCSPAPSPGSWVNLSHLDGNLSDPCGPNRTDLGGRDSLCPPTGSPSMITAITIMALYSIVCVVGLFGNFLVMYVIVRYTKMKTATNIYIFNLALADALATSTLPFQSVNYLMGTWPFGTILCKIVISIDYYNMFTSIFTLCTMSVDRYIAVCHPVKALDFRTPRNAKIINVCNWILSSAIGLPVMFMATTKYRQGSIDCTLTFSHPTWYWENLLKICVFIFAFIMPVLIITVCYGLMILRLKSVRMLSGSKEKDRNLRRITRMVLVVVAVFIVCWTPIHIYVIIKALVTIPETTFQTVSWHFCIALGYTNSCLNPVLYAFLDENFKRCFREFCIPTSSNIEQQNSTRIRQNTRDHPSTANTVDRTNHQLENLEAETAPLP
Sodium-dependent dopamine transporter, sequence (Q01959 whole entry): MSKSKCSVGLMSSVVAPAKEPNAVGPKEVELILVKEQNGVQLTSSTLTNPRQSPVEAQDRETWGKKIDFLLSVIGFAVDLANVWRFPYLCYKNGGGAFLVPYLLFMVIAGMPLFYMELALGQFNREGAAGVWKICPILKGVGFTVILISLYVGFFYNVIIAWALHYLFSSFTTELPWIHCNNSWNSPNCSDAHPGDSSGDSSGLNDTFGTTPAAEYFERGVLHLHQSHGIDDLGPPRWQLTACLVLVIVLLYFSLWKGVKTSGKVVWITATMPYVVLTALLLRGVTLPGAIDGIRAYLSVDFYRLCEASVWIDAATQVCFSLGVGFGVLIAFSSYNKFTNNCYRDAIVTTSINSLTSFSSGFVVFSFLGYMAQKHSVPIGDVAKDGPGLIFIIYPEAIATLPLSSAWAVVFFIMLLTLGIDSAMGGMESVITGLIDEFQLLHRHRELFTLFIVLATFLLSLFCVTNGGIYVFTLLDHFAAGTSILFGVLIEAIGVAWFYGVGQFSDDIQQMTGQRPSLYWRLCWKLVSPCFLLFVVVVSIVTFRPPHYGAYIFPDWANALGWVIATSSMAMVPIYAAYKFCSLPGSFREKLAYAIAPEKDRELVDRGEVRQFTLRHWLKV
cGMP-inhibited 3',5'-cyclic phosphodiesterase 3A, sequence (Q14432 whole entry): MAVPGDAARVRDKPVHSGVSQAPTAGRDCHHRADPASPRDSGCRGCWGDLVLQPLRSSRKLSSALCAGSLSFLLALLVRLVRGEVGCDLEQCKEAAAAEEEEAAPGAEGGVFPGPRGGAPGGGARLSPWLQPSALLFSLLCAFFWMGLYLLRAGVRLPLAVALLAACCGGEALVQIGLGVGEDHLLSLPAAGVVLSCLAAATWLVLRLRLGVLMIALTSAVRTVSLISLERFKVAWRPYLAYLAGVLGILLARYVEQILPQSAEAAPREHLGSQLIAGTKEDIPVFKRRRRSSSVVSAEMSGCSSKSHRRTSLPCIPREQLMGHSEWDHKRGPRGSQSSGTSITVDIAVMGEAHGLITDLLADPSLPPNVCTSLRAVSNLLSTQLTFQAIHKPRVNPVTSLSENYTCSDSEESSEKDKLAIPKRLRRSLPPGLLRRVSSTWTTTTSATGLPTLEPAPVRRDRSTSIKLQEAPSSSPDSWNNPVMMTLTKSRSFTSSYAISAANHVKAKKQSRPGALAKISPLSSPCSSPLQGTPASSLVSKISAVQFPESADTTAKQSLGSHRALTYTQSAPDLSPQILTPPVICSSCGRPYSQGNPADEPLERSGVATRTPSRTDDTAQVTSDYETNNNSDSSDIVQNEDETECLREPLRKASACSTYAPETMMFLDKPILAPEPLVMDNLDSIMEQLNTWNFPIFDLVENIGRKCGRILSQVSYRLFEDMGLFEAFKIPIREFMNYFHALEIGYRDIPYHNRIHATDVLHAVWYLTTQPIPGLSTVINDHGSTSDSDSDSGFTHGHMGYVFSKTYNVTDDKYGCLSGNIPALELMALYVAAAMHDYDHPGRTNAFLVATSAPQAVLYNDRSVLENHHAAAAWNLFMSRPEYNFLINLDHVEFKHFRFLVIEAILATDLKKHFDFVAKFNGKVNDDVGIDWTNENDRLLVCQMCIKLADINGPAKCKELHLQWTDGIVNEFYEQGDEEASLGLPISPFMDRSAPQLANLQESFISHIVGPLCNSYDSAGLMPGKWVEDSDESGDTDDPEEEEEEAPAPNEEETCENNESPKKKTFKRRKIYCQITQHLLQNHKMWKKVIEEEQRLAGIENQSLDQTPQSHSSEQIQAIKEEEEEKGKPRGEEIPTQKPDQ
D(3) dopamine receptor, sequence (P35462 whole entry): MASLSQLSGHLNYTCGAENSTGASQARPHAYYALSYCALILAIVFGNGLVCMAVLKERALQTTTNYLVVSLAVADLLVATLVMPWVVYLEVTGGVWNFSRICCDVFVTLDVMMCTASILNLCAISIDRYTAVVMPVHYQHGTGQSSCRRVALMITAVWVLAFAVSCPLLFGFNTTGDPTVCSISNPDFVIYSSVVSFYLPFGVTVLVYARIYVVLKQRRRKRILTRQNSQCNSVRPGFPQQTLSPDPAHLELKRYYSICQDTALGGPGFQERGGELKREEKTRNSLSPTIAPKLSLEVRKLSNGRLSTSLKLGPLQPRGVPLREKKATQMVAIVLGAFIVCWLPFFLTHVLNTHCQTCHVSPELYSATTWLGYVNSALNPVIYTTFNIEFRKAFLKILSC
Acetylcholinesterase, sequence (P22303 whole entry): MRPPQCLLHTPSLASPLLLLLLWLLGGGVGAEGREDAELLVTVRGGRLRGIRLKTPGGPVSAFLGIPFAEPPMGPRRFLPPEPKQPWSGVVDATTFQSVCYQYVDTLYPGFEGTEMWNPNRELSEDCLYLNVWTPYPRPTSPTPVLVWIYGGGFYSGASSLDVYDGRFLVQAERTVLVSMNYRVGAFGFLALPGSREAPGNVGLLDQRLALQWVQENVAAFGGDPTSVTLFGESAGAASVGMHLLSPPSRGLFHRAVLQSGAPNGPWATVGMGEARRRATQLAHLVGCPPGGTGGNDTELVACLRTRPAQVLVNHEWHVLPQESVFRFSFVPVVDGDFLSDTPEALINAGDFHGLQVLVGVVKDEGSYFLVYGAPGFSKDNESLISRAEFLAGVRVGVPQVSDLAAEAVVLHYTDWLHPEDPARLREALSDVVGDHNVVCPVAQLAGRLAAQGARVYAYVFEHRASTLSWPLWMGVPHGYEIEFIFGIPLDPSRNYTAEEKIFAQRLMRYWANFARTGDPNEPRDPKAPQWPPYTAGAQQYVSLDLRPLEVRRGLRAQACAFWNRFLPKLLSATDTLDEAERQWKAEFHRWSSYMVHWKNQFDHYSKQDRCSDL
T1 sequence (P23219 whole entry): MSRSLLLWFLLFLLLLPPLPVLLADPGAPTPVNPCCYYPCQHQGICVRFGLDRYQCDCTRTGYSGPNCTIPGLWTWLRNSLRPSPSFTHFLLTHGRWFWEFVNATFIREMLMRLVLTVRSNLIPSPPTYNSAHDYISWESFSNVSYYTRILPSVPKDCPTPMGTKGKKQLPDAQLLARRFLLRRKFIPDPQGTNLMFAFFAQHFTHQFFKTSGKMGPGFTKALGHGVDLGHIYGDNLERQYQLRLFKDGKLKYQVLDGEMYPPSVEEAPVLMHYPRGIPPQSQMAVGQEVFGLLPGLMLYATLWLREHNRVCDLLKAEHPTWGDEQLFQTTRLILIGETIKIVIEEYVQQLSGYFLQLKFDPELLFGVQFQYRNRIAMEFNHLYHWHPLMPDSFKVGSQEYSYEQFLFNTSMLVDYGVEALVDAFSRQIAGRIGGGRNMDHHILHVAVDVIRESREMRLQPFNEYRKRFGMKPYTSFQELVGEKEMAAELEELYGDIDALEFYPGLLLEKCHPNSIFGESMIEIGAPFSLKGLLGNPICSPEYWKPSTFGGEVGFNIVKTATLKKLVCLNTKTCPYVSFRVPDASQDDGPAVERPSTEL
Voltage-gated inwardly rectifying potassium channel KCNH2, sequence (Q12809 whole entry): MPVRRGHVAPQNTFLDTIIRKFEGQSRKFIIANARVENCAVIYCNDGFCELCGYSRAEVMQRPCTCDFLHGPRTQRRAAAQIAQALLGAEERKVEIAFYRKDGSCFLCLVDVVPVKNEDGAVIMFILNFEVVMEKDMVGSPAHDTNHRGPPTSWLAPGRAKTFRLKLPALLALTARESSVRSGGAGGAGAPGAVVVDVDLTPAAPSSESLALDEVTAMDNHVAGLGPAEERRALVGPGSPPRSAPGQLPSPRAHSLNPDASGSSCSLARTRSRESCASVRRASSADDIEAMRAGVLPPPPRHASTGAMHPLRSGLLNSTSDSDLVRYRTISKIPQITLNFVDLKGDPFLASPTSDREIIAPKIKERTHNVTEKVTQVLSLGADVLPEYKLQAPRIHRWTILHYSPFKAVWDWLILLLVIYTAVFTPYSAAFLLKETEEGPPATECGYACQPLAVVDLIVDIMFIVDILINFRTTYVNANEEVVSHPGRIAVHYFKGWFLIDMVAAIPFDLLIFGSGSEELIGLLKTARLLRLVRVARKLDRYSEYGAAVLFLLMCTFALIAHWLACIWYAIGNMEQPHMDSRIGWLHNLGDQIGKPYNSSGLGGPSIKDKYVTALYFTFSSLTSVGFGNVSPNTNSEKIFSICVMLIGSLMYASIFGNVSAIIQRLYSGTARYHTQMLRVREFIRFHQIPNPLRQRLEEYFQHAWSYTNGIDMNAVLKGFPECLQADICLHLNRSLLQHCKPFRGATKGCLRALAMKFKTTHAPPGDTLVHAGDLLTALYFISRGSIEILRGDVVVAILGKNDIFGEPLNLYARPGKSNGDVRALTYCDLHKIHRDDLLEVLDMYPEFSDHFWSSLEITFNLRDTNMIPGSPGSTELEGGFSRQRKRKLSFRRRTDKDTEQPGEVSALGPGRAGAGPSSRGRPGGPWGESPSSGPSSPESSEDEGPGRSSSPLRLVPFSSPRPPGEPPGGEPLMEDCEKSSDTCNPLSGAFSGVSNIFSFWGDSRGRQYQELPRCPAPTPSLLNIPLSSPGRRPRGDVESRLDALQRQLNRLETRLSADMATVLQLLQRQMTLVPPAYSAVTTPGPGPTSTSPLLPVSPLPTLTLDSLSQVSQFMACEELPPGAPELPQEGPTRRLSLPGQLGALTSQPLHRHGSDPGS

| SMILES | AC50 [1] | AC50 [2] | AC50 (D(1A) dopamine receptor) | AC50 (Acetylcholinesterase) | AC50 (Thromboxane A2 receptor) | AC50 [3] | AC50 [4] | AC50 [5] | AC50 (Mu-type opioid receptor) | AC50 (Progesterone receptor) | AC50 (Prothrombin) | AC50 [6] | AC50 (D(3) dopamine receptor) | AC50 [7] | AC50 [8] |
| --- | --- | --- | --- | --- | --- | --- | --- | --- | --- | --- | --- | --- | --- | --- | --- |
| C=C(C)CNc1ccc(C(C)C(=O)O)cc1 (stereo not given) [ALMINOPROFEN] | > 30 µM | > 30 µM | > 30 µM | > 30 µM | > 30 µM | > 30 µM | > 30 µM | > 30 µM | > 30 µM | > 30 µM | > 30 µM | > 30 µM | > 30 µM | > 30 µM | > 30 µM |
| Cc1cc(C2CCCCC2)n(O)c(=O)c1 [CICLOPIROX] | > 30 µM | > 30 µM | > 30 µM | > 30 µM | 25.4 µM | > 30 µM | 23.1 µM | > 30 µM | > 30 µM | > 30 µM | > 30 µM | > 30 µM | > 30 µM | > 30 µM | > 30 µM |
| C[N+](C)(C)CCOP(=O)(O)OP(=O)([O-])OC[C@H]1O[C@@H](n2ccc(N)nc2=O)[C@H](O)[C@@H]1O [CITICOLINE] | > 30 µM | > 30 µM | > 30 µM | > 30 µM | > 30 µM | > 30 µM | > 30 µM | > 30 µM | > 30 µM | > 30 µM | > 30 µM | > 30 µM | > 30 µM | > 30 µM | > 30 µM |
| C[C@H]1O[C@@H](O[C@H]2CC[C@@]3(C)[C@H](CC[C@@H]4[C@@H]3C[C@@H](O)[C@]3(C)[C@@H](C5=CC(=O)OC5)CC[C@]43O)C2)C[C@H](O)[C@@H]1O[C@H]1C[C@H](O)[C@H](O[C@H]2C[C@H](O)[C@H](O[C@@H]3O[C@H](CO)[C@@H](O)[C@H](O)[C@H]3O)[C@@H](C)O2)[C@@H](C)O1 [DESLANOSIDE] | > 30 µM | > 30 µM | > 30 µM | > 30 µM | > 30 µM | > 30 µM | > 30 µM | > 30 µM | > 30 µM | > 30 µM | > 30 µM | > 30 µM | > 30 µM | > 30 µM | > 30 µM |
| CC[C@H]1OC(=O)[C@H](C)[C@@H](O[C@H]2C[C@@](C)(OC)[C@@H](O)[C@H](C)O2)[C@H](C)[C@@H](O[C@@H]2O[C@H](C)C[C@H](N(C)C)[C@H]2O)[C@](C)(O)C[C@@H](C)[C@@H]2N[C@@H](COCCOC)O[C@H]([C@H]2C)[C@]1(C)O [DIRITHROMYCIN] | > 30 µM | 9.63 µM | > 30 µM | > 30 µM | > 30 µM | > 30 µM | > 30 µM | > 30 µM | > 30 µM | > 30 µM | > 30 µM | > 30 µM | > 30 µM | > 30 µM | > 30 µM |
